According to ChEMBL document CHEMBL3352663, “Inhibition of group IVA cytosolic phospholipase A2 by thiazolyl ketones in vitro, ex vivo, and in vivo” (J Med Chem, 2014):

Each molecule was assayed on GVIA iPLA2 (Homo sapiens) (assay: Inhibition of human recombinant GVIA iPLA2 using 400 uM Triton X-100/98.3 uM PAPC/1.7 uM 14C-labeled PAPC substrate mixedmicelles at 1 uM).
`O=C(COc1ccc(-c2ccccc2)cc1)c1nccs1` was tested, and the inhibition was 23%. For `O=C(COc1ccccc1)c1nccs1`, the inhibition was 13%. Work on `CCCCCCCCc1ccc(OCC(=O)c2nccs2)cc1` yielded an inhibition of 67%. For `CCCCCCCCCCCCOCC(=O)c1nc(C(=O)OCC)cs1`, the inhibition was 92%. In the case of `CCCCCCCCc1ccc(OCC(=O)c2nc3ccccc3s2)cc1`, the inhibition is reported as 77%. `O=C(COc1ccc(F)cc1)c1nccs1` showed an inhibition of 5%. `CCCCCCCCc1ccc(OCC(=O)c2nc(CC(=O)OCC)cs2)cc1` showed an inhibition of 76%. `CCCCCCCCCCCCOCC(=O)c1nc(CC(=O)OCC)cs1` gave an inhibition of 91%.
